Measured values published in patent publication US20070021501A1, “Methods of treating epileptogenesis” (priority 2005, published 2007).

Key:
[1] = test system: lithium-pilocarpine model of temporal lobe epilepsy in the rat; test: Latency to and frequency of spontaneous recurrent seizures (SRS), lithium-pilocarpine model (Example 1); type: in vivo
Method: (§1) The bilateral EEG cortical activity was recorded during the whole duration of SE and behavioral changes were noted.
(§2) The effects of increasing doses of the test compound were studied on 3 groups of rats. The animals of the first group received 10 mg/kg of the test compound, i.p., 1 h after the onset of SE (pilo-TC10) while the animals of groups 2 and 3 received 30 and 60 mg/kg of the test compound (pilo-TC30 and pilo-TC60), respectively.
The control group received saline instead of pilocarpine and the test compound (saline-saline). […] Pilo-DZP received a second injection of 1 mg/kg DZP on the day of SE at about 10 h after the first one. Thereafter, Pilo-DZP and saline-saline rats received twice daily an equivalent volume of saline. […]
To calculate the frequency of SRS in pilocarpine-exposed rats, the seizure severity and distinguished stage III (clonic seizures of facial muscles and anterior limbs) and stage IV-V seizures (rearing and falling) was considered. […] The frequency of more severe stage IV-V SRS was highest during the first week in most groups, except pilo-TC30 and TC60 with late seizure onset where the SRS frequency was constant over the whole 4 weeks in TC30 group and over the first two weeks in the pilo-TC60 group with late SRS onset in which no stage IV-V seizures where no seizures recorded after the second week.

[2] = test system: lithium-pilocarpine status epilepticus in the rat; test: Mortality induced by SE, lithium-pilocarpine model (Example 1); type: in vivo
Description: The model induced in rats by pilocarpine associated with lithium (Li-Pilo) reproduces most of the clinical and neurophysiological features of human temporal lobe epilepsy (Turski et al., 1989, Synapse 3:154-171; Cavalheiro, 1995, Ital J Neurol Sci 16:33-37). In adult rats, the systemic administration of pilocarpine leads to status epilepticus (SE). The lethality rate reaches 30-50% during the first days. In the surviving animals, neuronal damage predominates within the hippocampal formation, the piriform and entorhinal cortices, thalamus, amygdaloid complex, neocortex and substantia nigra.
Male Wistar rats weighing 225-250 g, provided by Janvier Breeding Center (Le Genest-St-lste, France) were housed under controlled standard conditions (light/dark cycle, 7.00 a.m.-7.00 p.m. lights on), with food and water available ad libitum. All animal experimentation was performed in accordance with the rules of the European Communities Council Directive of Nov. 24, 1986 (86/609/EEC), and the French Department of Agriculture (License N^o 67-97). For electrode implantation, rats were anesthetized by an i.p. injection of 2.5 mg/kg diazepam (DZP, Valium, Roche, France) and […] ketamine chlorhydrate (Imalgene 1000, Rhone Merrieux, France). Four single-contact recording electrodes were placed on the skull, over the parietal cortex, two on each side.
as §1, §2
The control group received saline instead of pilocarpine and the test compound (saline-saline). […] Pilo-DZP received a second injection of 1 mg/kg DZP on the day of SE at about 10 h after the first one. Thereafter, Pilo-DZP and saline-saline rats received twice daily an equivalent volume of saline.

## NC(=O)OC[C@@H](O)c1ccccc1Cl [TC]
[1]; TC 10 mg/kg, weeks 3 and 4
  frequency of stage III SRS: significantly increased over pilo-DZP values
[1]; TC 60 mg/kg, one rat
  occurrence of epilepsy: did not become epileptic in a delay of 9 months post-SE
[2]; TC 10 mg/kg i.p. 1 h after onset of SE (6/23)
  mortality during the first 48 h after SE: 26%
[2]; TC 30 mg/kg i.p. 1 h after onset of SE (5/25)
  mortality during the first 48 h after SE: 20%
[2]; TC 60 mg/kg i.p. 1 h after onset of SE (1/23), p<0.01
  mortality during the first 48 h after SE: 4%

## CN1C(=O)CN=C(c2ccccc2)c2cc(Cl)ccc21 [DZP, diazepam]
[2]; DZP 2 mg/kg i.m. 1 h after onset of SE (5/22)
  mortality during the first 48 h after SE: 23%
